Legend:
[1] = 100 kPa, Liquid, Frequency=0.01 MHz, Alternating current cell with electrodes
[2] = xn = mol fraction of the nth substance listed; conditions: 100 kPa, Liquid, Frequency=0.01 MHz, Alternating current cell with electrodes
[3] = mn = molality of the nth substance listed, in mol/kg; conditions: 100 kPa, Liquid, Frequency=0.01 MHz, Alternating current cell with electrodes

CCCO [propan-1-ol]
[1]
Conditions | electrical conductivity [S/m]
293.15 K | 1.51e-06
298.15 K | 1.8e-06
303.15 K | 2.16e-06
308.15 K | 2.38e-06

CCCO [propan-1-ol] + O
electrical conductivity [S/m], [2]
Conditions | x2 = 0 | x2 = 0.1 | x2 = 0.2 | x2 = 0.3 | x2 = 0.4 | x2 = 0.5 | x2 = 0.6 | x2 = 0.7 | x2 = 0.8
293.15 K | 1.51e-06 | 3.98e-06 | 8.35e-06 | 1.38e-05 | 1.71e-05 | 2.01e-05 | 2.54e-05 | 2.84e-05 | 3.15e-05
298.15 K | 1.8e-06 | 4.32e-06 | 8.31e-06 | 1.46e-05 | 1.86e-05 | 2.13e-05 | 2.55e-05 | 2.93e-05 | 3.36e-05
303.15 K | 2.16e-06 | 4.68e-06 | 1.03e-05 | 1.58e-05 | 1.92e-05 | 2.27e-05 | 2.68e-05 | 3.06e-05 | 3.5e-05
308.15 K | 2.38e-06 | 4.92e-06 | 8.6e-06 | 1.65e-05 | 2.01e-05 | 2.55e-05 | 2.96e-05 | 3.26e-05 | 3.75e-05

[I-].[Na+] [sodium iodide] + CCCO
[3]
Conditions | electrical conductivity [S/m]
293.15 K, m1 = 0.0007138 | 0.00107
298.15 K, m1 = 0.0009446 | 0.00154
303.15 K, m1 = 0.0007238 | 0.00135
308.15 K, m1 = 0.0006021 | 0.00126

— the NIST ThermoML archive (doi:10.1016/j.jct.2017.07.003)
